Source: ChEMBL document CHEMBL4837249, “Discovery of Potent Antiallergic Agents Based on an o-Aminopyridinyl Alkynyl Scaffold” (J Med Chem, 2021)
Calls of active or inactive are those of the source. The calls are words filed in the database; no cut-off is given here.

Key:
[1] = target: Mast/stem cell growth factor receptor Kit (Homo sapiens) (UniProt P10721); test: Inhibition of human recombinant c-Kit at 5 nM by radiometric scintillation counting analysis relative to control
RBL-2H3 [2] = test: Inhibition of Akt phosphorylation in rat RBL-2H3 cells assessed as inhibition of Fc epsilonRI-mediated signal transduction by Western blot analysis; format: cell-based; conditions: dose 8-200 nM
[3] = MRT in BALB/c mouse at 2 mg/kg, iv measured up to 24 hrs by LC-MS/MS analysis; format: ADME, organism-based; conditions: in vivo
[4] = Toxicity in anti-DNP IgE sensitized BALB/c mouse assessed as splenomegaly at 40 mg/kg, po; format: organism-based; conditions: in vivo
[5] = Half life in BALB/c mouse at 20 mg/kg, po measured up to 24 hrs by LC-MS/MS analysis; format: ADME, organism-based; conditions: in vivo
[6] = AUC (0 to t) in BALB/c mouse at 2 mg/kg, iv measured up to 24 hrs by LC-MS/MS analysis; format: ADME, organism-based; set-up: route intravenous, dose 2 mg/kg, time <=24; conditions: in vivo
[7] = Toxicity in anti-DNP IgE sensitized BALB/c mouse assessed as ascites at 40 mg/kg, po; format: organism-based; conditions: in vivo
Mus musculus [8] = test: Antiallergic activity against anti-DNP IgE sensitized house dust mite-induced BALB/c mouse pulmonary allergic inflammation model assessed as by reduction in serum total IgE level at 40 mg/kg, po measured every 5 mins for 60 mins; format: functional, organism-based
RBL-2H3 [9] = test: Antiallergic activity against anti-DNP-IgE sensitized rat RBL-2H3 cells assessed as […] of degranulation by measuring beta-hexosaminidase release using P-nitrophenyl-N-acetyl-D-glucosamide as substrate at 0.04 uM measured after 1 hr by microplate reader relative to control; format: functional
[10] = Toxicity in anti-DNP IgE sensitized BALB/c mouse assessed as hemorrhage at 40 mg/kg, po; format: organism-based; conditions: in vivo
[11] = target: Tyrosine-protein kinase BTK (Homo sapiens) (UniProt Q06187); test: Inhibition of human full length recombinant BTK at 50 nM by radiometric scintillation counting analysis relative to control
[12] = target: Proto-oncogene tyrosine-protein kinase Src (Homo sapiens, UniProt P12931); test: Inhibition of human recombinant Src (1-530) by radiometric scintillation counting analysis
[13] = Toxicity in anti-DNP IgE sensitized BALB/c mouse assessed as vomiting at 40 mg/kg, po; format: organism-based; conditions: in vivo
[14] = target: Tyrosine-protein kinase Lck (Homo sapiens, UniProt P06239); test: Inhibition of human full length recombinant LCK by radiometric scintillation counting analysis
[15] = Clearance in BALB/c mouse at 2 mg/kg, iv measured up to 24 hrs by LC-MS/MS analysis; format: ADME, organism-based; conditions: in vivo
[16] = MRT in BALB/c mouse at 20 mg/kg, po measured up to 24 hrs by LC-MS/MS analysis; format: ADME, organism-based; conditions: in vivo
[17] = Toxicity in anti-DNP IgE sensitized BALB/c mouse assessed as piloerection at 40 mg/kg, po; format: organism-based; conditions: in vivo
Mus musculus [18] = test: Antiallergic activity against anti-DNP IgE sensitized passive systemic anaphylaxis-induced BALB/c mouse pulmonary allergic inflammation model assessed as by decrease in body temperature drop at 40 mg/kg, po measured every 5 mins for 60 mins; format: functional, organism-based
[19] = Toxicity in anti-DNP IgE sensitized BALB/c mouse assessed as death at 40 mg/kg, po; format: organism-based; conditions: in vivo
[20] = Oral bioavailability in BALB/c mouse at 20 mg/kg measured up to 24 hrs by LC-MS/MS analysis; format: ADME, organism-based; conditions: in vivo
[21] = AUC (0 to t) in BALB/c mouse at 20 mg/kg, po measured up to 24 hrs by LC-MS/MS analysis; format: ADME, organism-based; set-up: route oral, dose 20 mg/kg, time <=24; conditions: in vivo
[22] = target: 1-phosphatidylinositol 4,5-bisphosphate phosphodiesterase gamma-1 (Rattus norvegicus) (UniProt P10686); test: Inhibition of PLCgamma1 phosphorylation in rat RBL-2H3 cells assessed as inhibition of Fc epsilonRI-mediated signal transduction by Western blot analysis; format: cell-based; conditions: dose 8-200 nM
[23] = Volume of distribution at steady state in BALB/c mouse at 2 mg/kg, iv measured up to 24 hrs by LC-MS/MS analysis; format: ADME, organism-based; conditions: in vivo, read-out: Vdss
[24] = target: RAC-alpha serine/threonine-protein kinase (Homo sapiens) (UniProt P31749); test: Inhibition of human recombinant PKBalpha at 5 nM radiometric scintillation counting analysis relative to control
[25] = target: T1, Cytoplasmic tyrosine-protein kinase BMX (Homo sapiens) (UniProt P51813); test: Inhibition of human full length recombinant Bmx at 50 nM by radiometric scintillation counting analysis relative to control
T1 sequence (whole entry): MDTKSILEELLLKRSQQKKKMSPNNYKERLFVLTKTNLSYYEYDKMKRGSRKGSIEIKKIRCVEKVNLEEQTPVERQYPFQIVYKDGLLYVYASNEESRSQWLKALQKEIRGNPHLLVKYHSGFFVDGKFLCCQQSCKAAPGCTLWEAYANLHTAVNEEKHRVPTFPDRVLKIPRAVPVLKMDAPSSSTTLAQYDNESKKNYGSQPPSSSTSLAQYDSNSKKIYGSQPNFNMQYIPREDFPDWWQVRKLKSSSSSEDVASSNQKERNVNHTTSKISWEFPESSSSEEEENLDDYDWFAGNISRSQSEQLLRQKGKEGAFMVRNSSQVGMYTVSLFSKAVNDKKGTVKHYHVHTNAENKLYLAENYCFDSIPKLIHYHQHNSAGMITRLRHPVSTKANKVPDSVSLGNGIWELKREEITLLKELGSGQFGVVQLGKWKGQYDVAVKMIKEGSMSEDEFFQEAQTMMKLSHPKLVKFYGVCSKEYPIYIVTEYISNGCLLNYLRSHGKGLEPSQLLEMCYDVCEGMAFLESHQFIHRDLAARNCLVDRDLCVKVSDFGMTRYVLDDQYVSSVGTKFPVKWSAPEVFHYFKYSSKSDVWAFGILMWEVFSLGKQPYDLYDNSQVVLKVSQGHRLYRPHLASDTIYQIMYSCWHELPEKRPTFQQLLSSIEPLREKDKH

[26] = Toxicity in anti-DNP IgE sensitized BALB/c mouse assessed as diarrhea at 40 mg/kg, po; format: organism-based; conditions: in vivo
[27] = Cmax in BALB/c mouse at 20 mg/kg, po measured up to 24 hrs by LC-MS/MS analysis; format: ADME, organism-based; set-up: route oral, dose 20 mg/kg, time <=24; conditions: in vivo
[28] = Tmax in BALB/c mouse at 20 mg/kg, po measured up to 24 hrs by LC-MS/MS analysis; format: ADME, organism-based; conditions: in vivo
[29] = target: Proto-oncogene tyrosine-protein kinase Src (Rattus norvegicus) (UniProt Q9WUD9); test: Inhibition of Src phosphorylation in rat RBL-2H3 cells assessed as inhibition of Fc epsilonRI-mediated signal transduction by Western blot analysis; format: cell-based; conditions: dose 8-200 nM
[30] = target: Tyrosine-protein kinase SYK (Homo sapiens) (UniProt P43405); test: Inhibition of human full length recombinant Syk at 5 nM by radiometric scintillation counting analysis relative to control
[31] = target: Tyrosine-protein kinase JAK1 (Homo sapiens) (UniProt P23458); test: Inhibition of human recombinant JAK1 at 5 nM radiometric scintillation counting analysis relative to control

Tyrosine-protein kinase BTK (Homo sapiens), sequence (Q06187 whole entry): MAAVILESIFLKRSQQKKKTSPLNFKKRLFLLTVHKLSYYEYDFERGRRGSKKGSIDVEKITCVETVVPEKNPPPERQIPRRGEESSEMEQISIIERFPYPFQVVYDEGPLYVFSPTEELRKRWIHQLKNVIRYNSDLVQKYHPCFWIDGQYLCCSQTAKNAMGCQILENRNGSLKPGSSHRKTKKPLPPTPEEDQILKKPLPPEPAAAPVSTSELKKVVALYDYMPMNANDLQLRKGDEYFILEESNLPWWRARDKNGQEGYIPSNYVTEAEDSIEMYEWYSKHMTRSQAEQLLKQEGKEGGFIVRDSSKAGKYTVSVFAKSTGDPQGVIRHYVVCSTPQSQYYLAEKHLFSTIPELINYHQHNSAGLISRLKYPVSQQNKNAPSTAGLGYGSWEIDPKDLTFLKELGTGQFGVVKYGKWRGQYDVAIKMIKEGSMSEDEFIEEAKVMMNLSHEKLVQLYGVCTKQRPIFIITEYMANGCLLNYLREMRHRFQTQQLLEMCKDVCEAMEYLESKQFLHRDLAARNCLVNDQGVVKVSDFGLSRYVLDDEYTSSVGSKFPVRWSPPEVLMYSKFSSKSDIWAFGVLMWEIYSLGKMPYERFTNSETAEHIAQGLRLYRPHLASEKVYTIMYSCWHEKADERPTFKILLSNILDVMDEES
Tyrosine-protein kinase Lck, sequence (P06239 whole entry): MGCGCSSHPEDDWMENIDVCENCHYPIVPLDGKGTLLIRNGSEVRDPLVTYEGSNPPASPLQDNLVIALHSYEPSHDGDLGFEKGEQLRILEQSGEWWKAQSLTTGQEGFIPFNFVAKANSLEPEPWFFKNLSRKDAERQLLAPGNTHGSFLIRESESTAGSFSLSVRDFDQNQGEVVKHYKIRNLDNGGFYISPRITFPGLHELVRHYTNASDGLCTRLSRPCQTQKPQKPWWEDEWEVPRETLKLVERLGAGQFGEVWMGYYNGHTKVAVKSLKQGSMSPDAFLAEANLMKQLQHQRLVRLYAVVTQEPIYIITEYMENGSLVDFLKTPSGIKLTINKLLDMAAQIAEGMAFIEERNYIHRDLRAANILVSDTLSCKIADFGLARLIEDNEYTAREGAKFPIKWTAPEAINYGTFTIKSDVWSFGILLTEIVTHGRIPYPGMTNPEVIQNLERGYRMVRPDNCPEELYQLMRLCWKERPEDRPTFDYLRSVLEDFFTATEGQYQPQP
Proto-oncogene tyrosine-protein kinase Src, sequence (P12931 2-536 limits assumed): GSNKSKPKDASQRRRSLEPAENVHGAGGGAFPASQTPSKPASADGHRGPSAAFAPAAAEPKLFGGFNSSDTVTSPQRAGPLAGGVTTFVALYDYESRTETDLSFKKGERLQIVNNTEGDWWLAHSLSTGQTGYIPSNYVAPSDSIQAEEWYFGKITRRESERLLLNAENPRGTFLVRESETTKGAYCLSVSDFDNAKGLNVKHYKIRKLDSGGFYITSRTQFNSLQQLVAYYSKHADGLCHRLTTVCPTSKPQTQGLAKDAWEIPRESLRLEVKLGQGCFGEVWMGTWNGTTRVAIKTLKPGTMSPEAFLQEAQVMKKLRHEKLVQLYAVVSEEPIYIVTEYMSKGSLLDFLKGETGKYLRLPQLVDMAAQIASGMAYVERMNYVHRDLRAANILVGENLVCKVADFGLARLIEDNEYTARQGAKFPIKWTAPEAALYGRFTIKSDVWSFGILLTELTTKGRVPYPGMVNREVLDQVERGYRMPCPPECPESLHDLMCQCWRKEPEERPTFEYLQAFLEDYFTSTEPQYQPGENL
RAC-alpha serine/threonine-protein kinase (Homo sapiens), sequence (P31749 whole entry): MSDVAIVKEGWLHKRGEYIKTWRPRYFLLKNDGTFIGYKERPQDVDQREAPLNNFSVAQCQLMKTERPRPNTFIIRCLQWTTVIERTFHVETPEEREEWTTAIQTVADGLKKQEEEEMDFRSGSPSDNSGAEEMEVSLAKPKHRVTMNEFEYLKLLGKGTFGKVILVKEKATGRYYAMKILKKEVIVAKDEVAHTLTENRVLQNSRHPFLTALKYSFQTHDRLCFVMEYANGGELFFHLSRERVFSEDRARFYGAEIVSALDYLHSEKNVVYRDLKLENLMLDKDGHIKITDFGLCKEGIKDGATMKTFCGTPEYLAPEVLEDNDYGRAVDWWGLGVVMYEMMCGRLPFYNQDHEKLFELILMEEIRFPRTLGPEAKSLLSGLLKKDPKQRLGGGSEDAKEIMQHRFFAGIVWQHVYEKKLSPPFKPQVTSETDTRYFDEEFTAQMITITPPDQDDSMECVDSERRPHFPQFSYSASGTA
Mast/stem cell growth factor receptor Kit (Homo sapiens), sequence (P10721 whole entry): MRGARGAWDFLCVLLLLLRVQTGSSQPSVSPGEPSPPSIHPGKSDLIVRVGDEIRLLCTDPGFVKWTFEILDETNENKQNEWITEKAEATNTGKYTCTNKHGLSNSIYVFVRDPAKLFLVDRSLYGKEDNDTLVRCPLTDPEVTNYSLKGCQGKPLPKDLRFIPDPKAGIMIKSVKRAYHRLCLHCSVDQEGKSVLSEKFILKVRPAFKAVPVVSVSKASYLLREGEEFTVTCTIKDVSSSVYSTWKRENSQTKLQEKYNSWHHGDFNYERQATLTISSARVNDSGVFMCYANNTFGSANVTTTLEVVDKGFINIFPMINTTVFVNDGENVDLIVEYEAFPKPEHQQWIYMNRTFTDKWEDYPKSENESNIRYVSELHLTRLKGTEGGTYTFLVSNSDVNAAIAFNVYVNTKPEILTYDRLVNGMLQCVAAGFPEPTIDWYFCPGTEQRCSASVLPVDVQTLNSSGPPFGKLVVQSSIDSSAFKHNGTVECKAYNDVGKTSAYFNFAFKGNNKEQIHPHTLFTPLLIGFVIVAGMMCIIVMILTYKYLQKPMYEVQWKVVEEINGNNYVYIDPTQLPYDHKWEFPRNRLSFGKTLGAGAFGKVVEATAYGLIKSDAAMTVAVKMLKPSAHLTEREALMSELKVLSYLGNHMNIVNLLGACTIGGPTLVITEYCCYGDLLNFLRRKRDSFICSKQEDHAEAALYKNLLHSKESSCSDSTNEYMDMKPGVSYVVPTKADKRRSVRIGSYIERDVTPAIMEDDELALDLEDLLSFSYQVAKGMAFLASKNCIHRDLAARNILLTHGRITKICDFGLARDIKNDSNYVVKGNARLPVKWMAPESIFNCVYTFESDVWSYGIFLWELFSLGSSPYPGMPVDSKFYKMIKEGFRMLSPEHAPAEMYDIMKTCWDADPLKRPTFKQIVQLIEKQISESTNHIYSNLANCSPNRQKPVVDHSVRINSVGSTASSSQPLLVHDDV
Proto-oncogene tyrosine-protein kinase Src (Rattus norvegicus), sequence (Q9WUD9 2-536 limits assumed): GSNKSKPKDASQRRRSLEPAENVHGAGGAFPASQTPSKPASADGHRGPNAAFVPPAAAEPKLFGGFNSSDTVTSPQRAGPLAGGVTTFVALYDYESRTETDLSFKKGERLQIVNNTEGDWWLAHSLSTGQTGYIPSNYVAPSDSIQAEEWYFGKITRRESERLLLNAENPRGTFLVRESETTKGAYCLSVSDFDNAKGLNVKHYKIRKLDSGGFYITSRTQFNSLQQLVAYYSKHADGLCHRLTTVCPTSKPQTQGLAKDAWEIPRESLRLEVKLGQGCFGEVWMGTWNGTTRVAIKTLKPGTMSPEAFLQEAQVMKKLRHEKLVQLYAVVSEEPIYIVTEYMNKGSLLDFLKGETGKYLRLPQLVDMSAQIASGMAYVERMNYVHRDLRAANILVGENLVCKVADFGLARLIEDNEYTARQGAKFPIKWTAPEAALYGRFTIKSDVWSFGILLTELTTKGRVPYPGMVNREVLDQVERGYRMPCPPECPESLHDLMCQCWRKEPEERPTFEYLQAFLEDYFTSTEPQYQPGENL
1-phosphatidylinositol 4,5-bisphosphate phosphodiesterase gamma-1 (Rattus norvegicus), sequence (P10686 whole entry): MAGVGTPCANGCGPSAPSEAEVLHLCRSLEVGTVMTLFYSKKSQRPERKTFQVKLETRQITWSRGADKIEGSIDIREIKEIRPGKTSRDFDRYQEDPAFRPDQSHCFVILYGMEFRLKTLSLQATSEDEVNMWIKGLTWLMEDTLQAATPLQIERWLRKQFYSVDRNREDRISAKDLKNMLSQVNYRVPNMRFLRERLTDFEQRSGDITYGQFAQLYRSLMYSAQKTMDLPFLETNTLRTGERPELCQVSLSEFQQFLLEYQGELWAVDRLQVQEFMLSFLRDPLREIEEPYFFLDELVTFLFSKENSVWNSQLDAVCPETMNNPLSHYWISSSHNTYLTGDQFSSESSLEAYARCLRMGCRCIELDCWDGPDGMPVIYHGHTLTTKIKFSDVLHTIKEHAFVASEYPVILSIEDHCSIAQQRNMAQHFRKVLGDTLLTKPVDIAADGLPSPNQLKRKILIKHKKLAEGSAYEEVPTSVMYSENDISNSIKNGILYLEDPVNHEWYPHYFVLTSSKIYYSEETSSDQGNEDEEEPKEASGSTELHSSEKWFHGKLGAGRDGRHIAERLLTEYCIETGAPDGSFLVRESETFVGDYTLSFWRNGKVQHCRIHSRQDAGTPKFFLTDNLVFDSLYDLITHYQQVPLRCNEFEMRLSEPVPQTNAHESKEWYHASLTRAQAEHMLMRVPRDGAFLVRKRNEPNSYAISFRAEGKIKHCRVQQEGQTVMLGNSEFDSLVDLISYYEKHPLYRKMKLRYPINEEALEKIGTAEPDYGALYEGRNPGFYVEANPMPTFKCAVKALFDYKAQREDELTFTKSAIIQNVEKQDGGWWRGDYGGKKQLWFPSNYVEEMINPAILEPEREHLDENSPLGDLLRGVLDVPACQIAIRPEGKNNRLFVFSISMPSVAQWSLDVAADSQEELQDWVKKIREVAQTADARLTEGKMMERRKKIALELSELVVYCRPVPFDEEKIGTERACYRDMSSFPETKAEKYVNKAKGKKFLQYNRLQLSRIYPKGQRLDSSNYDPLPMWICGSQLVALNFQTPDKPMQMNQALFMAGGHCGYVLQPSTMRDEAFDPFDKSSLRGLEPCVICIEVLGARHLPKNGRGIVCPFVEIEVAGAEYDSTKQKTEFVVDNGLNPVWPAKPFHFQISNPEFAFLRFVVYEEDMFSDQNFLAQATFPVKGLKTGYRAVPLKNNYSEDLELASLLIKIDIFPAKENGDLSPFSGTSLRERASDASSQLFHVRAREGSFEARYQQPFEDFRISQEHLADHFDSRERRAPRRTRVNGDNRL

In the case of `Cc1ccc(C(=O)Nc2cc(C(F)(F)F)cc(C(F)(F)F)c2)cc1C#Cc1cc(-c2cnn(C)c2)cnc1N`, the inhibition [1] is reported as 7%, the inhibition (RBL-2H3 [2]) is reported as “Dose-Dependent Effect” and the MRT [3] is reported as 4.4 h. For the same molecule, the Activity [4] was “Non-Toxic”, the half-life [5] was 6.9 h and the AUC(0-t) at 24 h [6] was 2130 ng·h/mL. The Activity [7] was “Non-Toxic”, the Activity (Mus musculus [8]) was “Active” and the inhibition at 0.04 µM (RBL-2H3 [9]) was 112%. For the same molecule, the Activity [10] was “Non-Toxic”, the inhibition [11] was 27% and the IC50 [12] was 12 nM. The Activity [13] was “Non-Toxic”, the IC50 [14] was 101 nM and the clearance [15] was 15.2 mL/min/kg. The MRT [16] was 11.2 h, the Activity [17] was “Non-Toxic” and the Activity (Mus musculus [18]) was “Active”. The Activity [19] was “Non-Toxic”, the bioavailability [20] was 99.9% and the AUC(0-t) at 24 h [21] was 21300 ng·h/mL. The inhibition [22] was “Dose-Dependent Effect”, the Vd [23] was 4 L/kg and the inhibition [24] was -5%. For the same molecule, the inhibition [25] was 24%, the Activity [26] was “Non-Toxic” and the Cmax [27] was 1940 ng/mL. For the same molecule, the Tmax [28] was 2.67 h and the inhibition [29] was “Dose-Dependent Effect”.
`Cc1ccc(C(=O)Nc2ccc(Cl)cc2Cl)cc1C#Cc1cc(-c2cnn(C)c2)cnc1N` showed an inhibition [11] of 8%, an IC50 [12] of 163 nM and an IC50 [14] of 29 nM. For the same molecule, the inhibition [30] was -2%, the inhibition [31] was 14% and the inhibition [24] was 4%. It also gave an inhibition [25] of 23%.
In the case of `Cc1ccc(C(=O)Nc2ccc(OC(F)(F)F)cc2)cc1C#Cc1cc(-c2cnn(C)c2)cnc1N`, the inhibition [1] is reported as 13%.
